In patent publication US6596758B1, “Benzopyrans and benzoxepines, pharmaceutical compositions comprising them and preparation process” (Merck Patent GmbH, priority 1998, dated 2003):

Experiments:
[1] = test system: pGL3 reporter vector devoid of a PPAR response element; experiment: pGL3 reporter vector devoid of a PPAR response element, SK-Hep1 cells; format: cell-based, human
Source text: (§1) Analysis of the activation of PPARα and PPARγ is based on the transfection of a DNA allowing the expression of a reporter gene (the gene of luciferase) under the control of the PPARs, either endogenous in the case of PPARγ of exogenous in the case of PPARα. The reporter plasmid J3TkLuc comprises three copies of the response element for PPARs of the human apo A-II gene (Staels, B et al. (1995), J. Clin. Invest., 95, 705-712) which are cloned upstream of the promoter of the thymidine kinase gene of the herpes simplex virus in the plasmid pGL3. This reporter gene was obtained by subcloning, in the plasmid pGL3, the plasmid J3TkCAT described above (Fajas, L et al. (1997), J. Biol. Chem., 272, 18779-18789). […] These cells were inoculated at the rate of 20,000 cells per well (96-well plates) and transfected with 150 ng of reporter DNA complexed with a mixture of lipids. In the case of the SK-Hep1 cells, an expression vector for PPARα, described by Sher, T. et al. (1993), Biochemistry, 32, 5598-5604, is cotransfected. After 5, hours, the cells are washed twice and incubated for 36 hours in the presence of the test compound in a fresh culture medium comprising 10% foetal calf serum. At the end of incubation, the cells are lysed and the luciferase activity is measured. This activity is expressed relative to the control value. […]

[2] = test system: pGL3 reporter vector devoid of a PPAR response element; experiment: pGL3 reporter vector devoid of a PPAR response element, CV1 cells; format: cell-based, green monkey
Source text: as §1

PPARγ = PPARγ activation, luciferase reporter (J3TkLuc) in CV1 cells; format: cell-based, green monkey; conditions: 36 hours incubation, relative to the control value
Source text: (§2) The hypolipidaemic and hypoglycaemic effect of the compounds of the invention results from their ability to activate the PPARα and PPARγ isoforms.
as §1, with “After 5, hours, the cells are washed twice and incubated for 36 hours in the presence of the test compound in a fresh culture medium comprising 10% foetal calf serum.” left out, “measured.” for “measured. This activity is expressed relative to the control value.”

db/db mice = experiment: Antidiabetic and hypolipidaemic activity by the oral route in db/db mice; format: in vivo; conditions: 100 mg/kg/day per os
Experimental: The antidiabetic and hypolipidaemic activity of the compounds of formula I [sic] was determined by the oral route in db/db mice.
Two-month-old db/db mice are treated per os for 15 days with the compound of Example 16 (100 mg/kg/day). Each study group comprises seven animals. After treating for three days (D3) and fifteen days (D15), retro-orbital samples are taken after light anaesthesia and fasting for 4 hours.
The following measurements were taken:
quantitative determination of glycaemia (glucose oxidase) at D3 and D15 and of the lipid parameters with regard to the sera at D15 (COBAS): triglycerides, total cholesterol (CHOL), HDL cholesterol (HDL-C) and free fatty acids (FFA) (BioMérieux and Wako Chemicals quantitative determination kit).
The measurements which appear in this table are mean values±standard error.

PPARα = molecular target: T1, PPARα (Homo sapiens, UniProt Q07869); experiment: PPARα activation, luciferase reporter (J3TkLuc) in SK-Hep1 cells cotransfected with PPARα expression vector; format: cell-based; conditions: 36 hours incubation, relative to the control value
T1 construct: expressed in transfected cells
T1 sequence (Q07869 1-468): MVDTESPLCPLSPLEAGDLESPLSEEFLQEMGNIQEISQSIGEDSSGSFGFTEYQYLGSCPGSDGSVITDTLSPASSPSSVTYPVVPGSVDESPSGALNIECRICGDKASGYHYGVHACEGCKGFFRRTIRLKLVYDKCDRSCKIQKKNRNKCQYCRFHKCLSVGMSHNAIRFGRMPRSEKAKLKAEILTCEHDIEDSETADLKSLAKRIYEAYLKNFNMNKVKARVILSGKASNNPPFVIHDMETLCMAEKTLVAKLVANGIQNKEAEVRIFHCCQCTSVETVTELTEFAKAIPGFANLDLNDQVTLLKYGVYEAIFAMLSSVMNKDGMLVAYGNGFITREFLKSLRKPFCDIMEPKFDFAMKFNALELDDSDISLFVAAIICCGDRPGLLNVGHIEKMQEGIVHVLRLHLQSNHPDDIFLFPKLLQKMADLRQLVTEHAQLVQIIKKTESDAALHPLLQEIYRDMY
Source text: as §2
as §1, with “After 5, hours, the cells are washed twice and incubated for 36 hours in the presence of the test compound in a fresh culture medium comprising 10% foetal calf serum.” left out, “measured.” for “measured. This activity is expressed relative to the control value.”

[3] = day 15, serum, mean ± standard error

Row | melting point | SMILES | further results
1 | 162 to 163 °C | COc1ccc2c(c1)OC(C)(C)C=C2/C=C/C(C)=C/C(=O)O [Example 48B, (2E, 4E)-5-(7-Methoxy-2,2-dimethyl-2H-chromen-4-yl)-3-methylpenta-2,4-dienoic acid] | 
2 | 145 °C | CC(/C=C/C1=CC(C)(C)COc2ccc(C(C)C)cc21)=C\C(=O)O [Example 40B, (2E, 4E)-5-(7-Isopropyl-3,3-dimethyl-2,3-dihydrobenzo[b]-oxepin-5-yl)-3-methylpenta-2,4-dienoic acid] | 
3 | 176 °C | CC(=C/C(=O)O)/C=C/C1=Cc2ccccc2OC1(C)C [Example 5b] | 
4 | 216 to 218 °C | CC1=C(/C=C/C(C)=C/C(=O)O)COc2ccccc21 [Example 11b] | 
5 | 206 °C | CC(/C=C/C1=CC(C)(C)COc2ccc(O)cc21)=C\C(=O)O [Example 44B] | 
6 | 129 to 130 °C | COc1ccc2c(c1)C(/C=C/C(C)=C/C(=O)O)=C(C)C(C)(C)CO2 [Example 54B, (2E, 4E)-5-(7-Methoxy-3,3,4-trimethyl-2,3-dihydrobenzo[b]-oxepin-5-yl)-3-methylpenta-2,4-dienoic acid] | 
7 |  | COc1ccc2c(c1)C(/C=C/C(C)=C/C(=O)O)=CC(C)(C)CO2 [Example 16b, (2E, 4E)-5-(3,3-Dimethyl-7-methoxy-2,3-dihydrobenzoxepin-5-yl)-3-methylpenta-2,4-dienoic acid] | luciferase activity with pGL3 reporter vector devoid of a PPAR response element [1]: inactive; luciferase activity with pGL3 reporter vector devoid of a PPAR response element [2]: inactive; increase of the luciferase signal (PPARγ): 300%; Glycaemia D3, % variation with respect to the control (db/db mice; day 3): −28%; Glycaemia D3 (db/db mice; day 3, fasting 4 hours, mean ± standard error): 15.4 ± 3.8 mM; Glycaemia D15, % variation with respect to the control (db/db mice; day 15): −40%; Glycaemia D15 (db/db mice; day 15, fasting 4 hours, mean ± standard error): 16.7 ± 4.4 mM; CHOL D15, % variation with respect to the control (db/db mice; day 15, serum): +19%; FFA, % variation with respect to the control (db/db mice; day 15, serum): −20%; HDL-C D15, % variation with respect to the control (db/db mice; day 15, serum): +18%; Triglycerides D15, % variation with respect to the control (db/db mice; day 15, serum): −68%; CHOL D15 (total cholesterol) (db/db mice; [3]): 4.44 ± 0.39 mM; FFA (free fatty acids) (db/db mice; [3]): 0.82 ± 0.23 (ns) mM; HDL-C D15 (HDL cholesterol) (db/db mice; [3]): 3.50 ± 0.37 mM; Triglycerides D15 (db/db mice; [3]): 0.69 ± 0.09 mM; increase of the luciferase signal (PPARα): 250%
8 | 173 to 174 °C | COc1ccc2c(c1)C(/C=C/C(C)=C/C(=O)O)=CC1(CCCCC1)CO2 [Example 34B, (2E, 4E)-5-(Spiro[(7-methoxy-2,3-dihydrobenzo[b]-oxepine)-3,1′-cyclohexane]-5-yl)-3-methyl-penta-2,4-dienoic acid] | 
9 | 195 to 196 °C | CC(/C=C/C1=CC(C)(C)COc2ccc(C3CCCCC3)cc21)=C\C(=O)O [Example 50B, (2E, 4E)-5-(7-Cyclohexyl-3,3-dimethyl-2,3-dihydrobenzo[b]-oxepin-5-yl)-3-methylpenta-2,4-dienoic acid] | 
10 | 147 to 149 °C | CCCCCC(/C=C/C1=CC(C)(C)COc2ccc(OC)cc21)=C\C(=O)O [Example 52B, (2E, 4E)-5-(7-Methoxy-3,3-dimethyl-2,3-dihydrobenzo[b]-oxepin-5-yl)-3-pentylpenta-2,4-dienoic acid] | 
11 | 166 to 168 °C | CCC(/C=C/C1=CC(C)(C)COc2ccc(OC)cc21)=C\C(=O)O [Example 43B, (2E, 4E)-3-Ethyl-5-(7-methoxy-3,3-dimethyl-2,3-dihydrobenzo[b]-oxepin-5-yl)penta-2,4-dienoic acid] | 
12 | 224 to 226 °C | CC(=C/C(=O)O)/C=C/C1=Cc2ccccc2OC1 [Example 12b] | 
13 | 104 to 106 °C | CCCCCCCCCNC1Oc2ccccc2C=C1/C=C/C(C)=C/C(=O)O (stereo not drawn) | 
14 | 159 to 161 °C | COc1ccc2c(c1)C(/C=C/C(C)=C/C(=O)O)=CC(C)(C)CS2 [Example 47B, (2E, 4E)-5-(7-Methoxy-3,3-dimethyl-2,3-dihydrobenzo[b]-thiepin-5-yl)-3-methylpenta-2,4-dienoic acid] | 
15 | 178 to 180 °C | COc1ccc2c(c1)OCC(C)(C)C=C2/C=C/C(C)=C/C(=O)O [Example 39B, (2E, 4E)-5-(8-Methoxy-3,3-dimethyl-2,3-dihydrobenzo[b]-oxepin-5-yl)-3-methylpenta-2,4-dienoic acid] | 
16 | 110 to 112 °C | CCOC(=O)/C=C(C)/C=C/C1=Cc2ccccc2OC1 [Example 3a] | 
17 | 113 to 115 °C | CCOC(=O)/C=C(C)/C=C/C1=CC(C)(C)COc2cc(-c3ccc(F)cc3)ccc21 [Example 38A, (2E, 4E)-5-[8-(4-Fluorophenyl)-3,3-dimethyl-2,3-dihydrobenzo[b]-oxepin-5-yl]-3-methylpenta-2,4-dienoic acid ethyl ester] | 
18 | 194 to 196 °C | CC(/C=C/C1=CC(C)(C)COc2ccc(-c3ccc(C(F)(F)F)cc3)cc21)=C\C(=O)O [Example 45B, (2E, 4E)-5-[3,3-Dimethyl-7-(4-(trifluoromethyl)phenyl)-2,3-dihydrobenzo[b]-oxepin-5-yl]-3-methylpenta-2,4-dienoic acid] | 
19 | 154 to 156 °C | CCCCCC1C=C(/C=C/C(C)=C/C(=O)O)c2cc(OC)ccc2OC1 (stereo not drawn) [Example 41, (2E, 4E)-5-(7-Methoxy-3-pentyl-2,3-dihydrobenzo[b]-oxepin-5-yl)-3-methylpenta-2,4-dienoic acid] | 
20 | 226 to 228 °C | CC(/C=C/C1=Cc2ccccc2OC1)=C\C(=O)O [Example 3b] | 
21 | 174 to 176 °C | CCCC(/C=C/C1=CC(C)(C)COc2ccc(OC)cc21)=C\C(=O)O [Example 49B, (2E, 4E)-5-(7-Methoxy-3,3-dimethyl-2,3-dihydrobenzo[b]-oxepin-5-yl)-3-propylpenta-2,4-dienoic acid] | 
22 | 171 to 173 °C | CC(/C=C/C1=CC(C)(C)COc2cc(C)c(C)cc21)=C\C(=O)O [Example 37B, 3-Methyl-5-(3,3,7,8-tetramethyl-2,3-dihydrobenzo[b]-oxepin-5-yl)penta-2,4-dienoic acid] | 
23 | 160 to 162 °C | COc1cccc2c1C(/C=C/C(C)=C/C(=O)O)=CC(C)(C)O2 [Example 46B, (2E, 4E)-5-(5-Methoxy-2,2-dimethyl-2H-chromen-4-yl)-3-methylpenta-2,4-dienoic acid] | 
24 | 200 to 202 °C | CC(/C=C/C1=Cc2ccccc2OC1c1ccccc1)=C\C(=O)O (stereo not drawn) [Example 14b] | 
25 | 258 to 260 °C | CC(/C=C/C1=C(c2ccccc2)c2ccccc2OC1)=C\C(=O)O [Example 7b] | 
26 | 164 to 166 °C | CC(/C=C/C1=Cc2ccccc2OC1(C)C)=C\C(=O)O [Example 4b] | 
27 | 207 to 209 °C | CC(/C=C/C1=CC(C)(C)COc2cc(-c3ccc(F)cc3)ccc21)=C\C(=O)O [Example 38B, (2E, 4E)-5-[8-(4-Fluorophenyl)-3,3-dimethyl-2,3-dihydrobenzo[b]-oxepin-5-yl]-3-methylpenta-2,4-dienoic acid] | 
